In patent publication US7405228B2, “Antibacterial cyano-(substituted)-methylenepiperidinophenyl oxazolidinones targeting multiple ribonucleoprotein sites” (Wockhardt Limited, priority 2002, dated 2008):

SMILES	melting point [°C]
CS(=O)(=O)OC[C@H]1CN(c2ccc(N3CCC(C(C#N)C(=O)O)CC3)c(F)c2)C(=O)O1 (stereo partly drawn) [Example 155, (R)-{3-[4-(4-(1-Cyano-1-hydroxycarbonyl)-methylpiperidin-1-yl)-3-fluorophenyl]-2-oxo-oxazolidin-5-ylmethyl}-methanesulphonate]	108 to 110
N#CC(CO)C1CCN(c2ccc(N3C[C@H](COc4ccon4)OC3=O)cc2F)CC1 (stereo partly drawn) [Example 153, (R)-3-{3-[4-(4-(1-cyano-2-hydroxy)-ethylpiperidin-1-yl)-3-fluorophenyl]-2-oxo-oxazolidin-5-ylmethyloxy}-iso-oxazole]	146 to 148
CC(C#N)=C1CCN(c2ccc(N3C[C@H](COc4ccon4)OC3=O)cc2F)CC1 [Example 83, (R)-3-{3-[4-(4-(1-cyanoethylidene)-piperidin-1-yl)-3-fluorophenyl]-2-oxo-oxazolidin-5-ylmethyloxy}-iso-oxazole]	137 to 138
CC(C#N)=C1CCN(c2ccc(N3C[C@H](CNC(=O)OCC(C)C)OC3=O)cc2F)CC1 [Example 81, (S)-N-{3-[4-(4-(1-cyanoethylidene)-piperidin-1-yl)-3-fluorophenyl]-2-oxo-oxazolidin-5-ylmethyl}-isobutylcarbamate]	158 to 160
CC(=O)NC[C@H]1CN(c2ccc(N3CC/C(=C/C#N)C(C)(C)C3)c(F)c2)C(=O)O1 [Example 70, (S)-N-{3-[4-(4-cyanomethylidene-3,3-dimethylpiperidin-1-yl)-3-fluorophenyl]-2-oxo-oxazolidin-5-ylmethyl}-acetamide]	150 to 152
CC(C#N)=C1CCN(c2ccc(N3C[C@H](CNC=O)OC3=O)cc2F)CC1 [Example 73, (S)-N-{3-[4-(4-(1-cyanoethylidene)-piperidin-1-yl)-3-fluorophenyl]-2-oxo-oxazolidin-5-ylmethyl}-formamide]	188 to 190

The next lines start with the values.

melting point [°C]	SMILES
110 to 112	N#CCC1CCN(c2ccc(N3C[C@H](CO)OC3=O)cc2)CC1 [Example 124, (R)-{3-[4-(4-cyanomethyl-piperidin-1-yl)-phenyl]-2-oxo-oxazolidin-5-ylmethyl}-alcohol]
157 to 158	N#CC=C1CCN(c2ccc(N3C[C@H](CNC(=S)CN)OC3=O)cc2F)CC1 [Example 49, (S)-N-{3-[4-(4-cyanomethylidene-piperidin-1-yl)-3-fluorophenyl]-2-oxo-oxazolidin-5-ylmethylamino}-thiocarbonylmethylamine]
172 to 174	N#CC=C1CCN(c2ccc(N3C[C@H](CN=C=O)OC3=O)cc2F)CC1 (stereo in doubt)
80 to 82	N#CC=C1CCN(c2ccc(N3CC(CN=[N+]=[N-])OC3=O)cc2)CC1 (stereo in doubt) [Example 1, (S)-{3-[4-(4-cyanomethylidene-piperidin-1-yl)-phenyl]-2-oxo-oxazolidin-5-ylmethyl}-azide]
88 to 90	N#CC=C1CCN(c2ccc(N3C[C@H](CNC(=O)C(N)CO)OC3=O)cc2F)CC1 (stereo partly drawn) [Example 42, (2S, 5S)-{N-{3-[4-(4-cyanomethylidene-piperidin-1-yl)-3-fluorophenyl]-2-oxo-oxazolidin-5-ylmethyl}-3-hydroxypropionamid-2-yl}-amine]
150 to 152	N#CC=C1CCN(c2ccc(N3C[C@H](CNC(=O)CC#N)OC3=O)cc2F)CC1 [Example 23, (S)-N-{3-[4-(4-cyanomethylidene-piperidin-1-yl)-3-fluorophenyl]-2-oxo-oxazolidin-5-ylmethyl}-2-cyanoacetamide]
103 to 105	C[C@H](N)C(=O)NC[C@H]1CN(c2ccc(N3CCC(=CC#N)CC3)c(F)c2)C(=O)O1 [Example 41, (2S, 5S)-{N-{3-[4-(4-cyanomethylidene-piperidin-1-yl)-3-fluorophenyl]-2-oxo-oxazolidin-5-ylmethyl}-propionamid-2-yl}-amine]
